Data: patent US8309568B2, “Transdermally deliverable opioid prodrugs, abuse-resistant compositions and methods of using opioid prodrugs” (Alltranz Inc., priority 2006, dated 2012)
Like-named read-outs stand apart in the source and are kept apart here.

How the values were obtained:
[1] = not given; remark: listed apart in the source
[2] = Table 8, gel formulation, analyte buprenorphine from prodrug
[3] = Table 8, gel formulation, analyte intact prodrug
[4] = Table 8, gel formulation, analyte total buprenorphine (buprenorphine and/or prodrug)
[5] = Table 8, gel formulation, total buprenorphine flux relative to buprenorphine
[6] = Table 9, propylene glycol, analyte buprenorphine from prodrug
[7] = Table 9, propylene glycol, analyte intact prodrug
[8] = Table 9, propylene glycol, analyte total buprenorphine (buprenorphine and/or prodrug)
[9] = Table 6, propylene glycol, 25% aq. ethanol receiver, analyte buprenorphine from prodrug
[10] = Table 6, propylene glycol, 25% aq. ethanol receiver, analyte intact prodrug
[11] = Table 6, propylene glycol, 25% aq. ethanol receiver, analyte total buprenorphine (buprenorphine and/or prodrug)
[12] = Table 11, propylene glycol, analyte buprenorphine from prodrug
[13] = Table 11, propylene glycol, analyte total buprenorphine (buprenorphine and/or prodrug)
[14] = Table 11, propylene glycol, total buprenorphine flux relative to buprenorphine
[15] = Table 11, propylene glycol, analyte intact prodrug
[16] = Table 10, gel formulation, analyte intact prodrug
[17] = Table 10, gel formulation, analyte total buprenorphine (buprenorphine and/or prodrug)
[18] = Table 12, propylene glycol/ethanol [96:4], analyte buprenorphine from prodrug
[19] = Table 12, propylene glycol/ethanol [96:4], analyte intact prodrug
[20] = Table 12, propylene glycol/ethanol [96:4], analyte total buprenorphine (buprenorphine and/or prodrug)
[21] = Table 13, gel formulation, analyte buprenorphine from prodrug
[22] = Table 13, gel formulation, analyte total buprenorphine (buprenorphine and/or prodrug)

COCCOCCOCCOC(=O)Oc1ccc2c3c1OC1C4(OC)CC[C@]5(CC4C(C)(O)C(C)(C)C)[C@@H](C2)N(CC2CC2)CC[C@]315 (stereo partly drawn) [ALL00106, Buprenorphine 3,6,9-trioxadecyl carbonate]
form in which the prodrug permeated through the skin (Hanks' buffer receiver fluid): permeated through the human skin as buprenorphine | 24 h cumulative amt (Table 3, donor propylene glycol, Hanks' buffer receiver, buprenorphine permeated): 11.4 ± 0.8 nmol | Flux (Table 3, donor propylene glycol, Hanks' buffer receiver, total buprenorphine flux): 0.54±0.07 nmol/cm^2/h | Flux enhancement (Table 3, donor propylene glycol, flux relative to buprenorphine): 1.20 | 24 h cumulative amt [2]: 1.7 ± 0.3 nmol | Flux [2]: 0.2 ± 0.1 nmol/cm^2/h | Lag time [2]: 4.7 ± 1.5 h | 24 h cumulative amt [3]: 3.8 ± 0.3 nmol | Flux [3]: 0.3 ± 0.0 nmol/cm^2/h | Lag time [3]: 8.2 ± 0.8 h | 24 h cumulative amt [4]: 5.5 ± 0.5 nmol | Flux [4]: 0.4 ± 0.1 nmol/cm^2/h | Lag time [4]: 6.5 ± 1.1 h | Flux enhancement [5]: 0.4 | 24 h cumulative amt [6]: 30.1 ± 13.2 nmol | Flux [6]: 2.3 ± 0.8 nmol/cm^2/h | Lag time [6]: 10.2 ± 1.4 h | 24 h cumulative amt [7]: 18.8 ± 4.6 nmol | Flux [7]: 1.5 ± 0.3 nmol/cm^2/h | Lag time [7]: 11.1 ± 1.2 h | 24 h cumulative amt [8]: 48.9 ± 17.6 nmol | Flux [8]: 3.8 ± 1.1 nmol/cm^2/h | Lag time [8]: 10.6 ± 1.3 h | Flux enhancement (Table 9, propylene glycol, total buprenorphine flux relative to buprenorphine): 3.2 | 24 h skin conc ([1]; Table 3, donor propylene glycol, Hanks' buffer receiver, analyte buprenorphine (Bup)): 0.2 ± 0.1 (Bup) μmol/g | 24 h skin conc ([1]; Table 3, donor propylene glycol, Hanks' buffer receiver, analyte intact prodrug (PD)): 2.1 ± 1.5 (PD) μmol/g | 24 h skin conc [1, 2]: 0.3 ± 0.1 µmol/g | 24 h skin conc [1, 3]: 11.9 ± 3.6 µmol/g | 24 h skin conc [1, 4]: 12.2 ± 3.6 µmol/g | 24 h skin conc [1, 6]: 1.6 ± 0.4 µmol/g | 24 h skin conc [1, 7]: 10.4 ± 4.0 µmol/g | 24 h skin conc [1, 8]: 11.9 ± 4.4 µmol/g

COCCOCCOCC(=O)Oc1ccc2c3c1O[C@H]1[C@@]4(OC)CC[C@@]5(C[C@@H]4[C@@](C)(O)C(C)(C)C)[C@@H](C2)N(CC2CC2)CC[C@]315 [ALL00108, Buprenorphine 2-[2-(2-methoxyethoxy)ethoxy]acetyl ester]
24 h cumulative amt [9]: 9.7 ± 0.4 nmol | Flux [9]: 0.90 ± 0.07 nmol/cm^2/h | Lag time [9]: 12.5 ± 1.3 h | 24 h cumulative amt [10]: 7.6 ± 2.0 nmol | 24 h cumulative amt [11]: 17.3 ± 1.6 nmol | Flux [11]: 1.01±0.07 nmol/cm^2/h | Lag time [11]: 6.0 ± 0.5 h | Flux enhancement (Table 6, propylene glycol, 25% aq. ethanol receiver, total buprenorphine flux relative to buprenorphine): 2.35 | 24 h cumulative amt [2]: 21.0 ± 6.7 nmol | Flux [2]: 1.2 ± 0.6 nmol/cm^2/h | Lag time [2]: 7.8 ± 0.8 h | 24 h cumulative amt [4]: 21.0 ± 6.7 nmol | Flux [4]: 1.2±0.6 nmol/cm^2/h | Lag time [4]: 7.8 ± 0.8 h | Flux enhancement [5]: 1.3 | 24 h cumulative amt [12]: 5.8 ± 0.7 nmol | Flux [12]: 0.5 ± 0.0 nmol/cm^2/h | Lag time [12]: 10.9 ± 2.4 h | 24 h cumulative amt [13]: 5.8 ± 0.7 nmol | Flux [13]: 0.5±0.0 nmol/cm^2/h | Lag time [13]: 10.9 ± 2.4 h | Flux enhancement [14]: 1.7 | form in which the prodrug permeated through the skin (aqueous ethanol receiver fluid): permeated through the skin as buprenorphine and intact prodrug | cumulative amount (nmol) higher than the buprenorphine base (aqueous ethanol receiver, propylene glycol, relative to buprenorphine base): 4 × | 24 h skin conc [1, 9]: 0.4 ± 0.1 µmol/g | 24 h skin conc [1, 10]: 1.0 ± 0.3 µmol/g | 24 h skin conc [1, 11]: 1.4 ± 0.4 µmol/g | 24 h skin conc [1, 2]: 0.2 ± 0.2 µmol/g | 24 h skin conc [1, 3]: 1.9 ± 1.6 µmol/g | 24 h skin conc [1, 4]: 2.2 ± 1.8 µmol/g | 24 h skin conc [1, 15]: 2.4 ± 0.7 µmol/g | 24 h skin conc [1, 13]: 2.4 ± 0.7 µmol/g

COCCOCCOCCOCCOC(=O)Oc1ccc2c3c1OC1C4(OC)CC[C@]5(CC4C(C)(O)C(C)(C)C)[C@@H](C2)N(CC2CC2)CC[C@]315 (stereo partly drawn) [ALL00115, Buprenorphine 3,6,9,12-tetraoxatridecyl carbonate]
24 h cumulative amt [16]: 4.5 ± 1.3 nmol | Flux [16]: 0.2 ± 0.1 nmol/cm^2/h | Lag time [16]: 7.6 ± 0.5 h | 24 h cumulative amt [17]: 4.5 ± 1.3 nmol | Flux [17]: 0.2±0.1 nmol/cm^2/h | Lag time [17]: 7.6 ± 0.5 h | Flux enhancement (Table 10, gel formulation, total buprenorphine flux relative to buprenorphine): 1.2 | 24 h cumulative amt [15]: 6.0 ± 1.3 nmol | 24 h cumulative amt [13]: 6.0 ± 1.3 nmol | Flux [13]: 0.7±0.2 nmol/cm^2/h | Lag time [13]: 9.4 ± 8.5 h | Flux enhancement [14]: 2.3 | form detected in the receiver fluid (both the gel formulation and propylene glycol): mostly detected as intact prodrug | 24 h skin conc ([1]; Table 10, gel formulation, analyte buprenorphine from prodrug): 0.1 ± 0.0 µmol/g | 24 h skin conc [1, 16]: 3.4 ± 0.6 µmol/g | 24 h skin conc [1, 17]: 1.4 ± 0.4 µmol/g | 24 h skin conc [1, 15]: 0.8 ± 0.2 µmol/g | 24 h skin conc [1, 13]: 0.8 ± 0.2 µmol/g

COCCOCCOCCOCC(=O)Oc1ccc2c3c1OC1C4(OC)CC[C@]5(CC4C(C)(O)C(C)(C)C)[C@@H](C2)N(CC2CC2)CC[C@]315 (stereo partly drawn) [ALL00116, Buprenorphine 3,6,9,12-tetraoxatridecanoyl ester]
24 h cumulative amt [18]: 8.7 ± 1.2 nmol | Flux [18]: 0.8 ± 0.2 nmol/cm^2/h | Lag time [18]: 13.2 ± 0.8 h | 24 h cumulative amt [19]: 21.7 ± 6.7 nmol | Flux [19]: 1.9 ± 0.6 nmol/cm^2/h | Lag time [19]: 11.8 ± 1.4 h | 24 h cumulative amt [20]: 30.4 ± 7.0 nmol | Flux [20]: 2.7±0.7 nmol/cm^2/h | Lag time [20]: 12.3 ± 1.2 h | Flux enhancement (Table 12, propylene glycol/ethanol [96:4], total buprenorphine flux relative to buprenorphine): 9.2 | 24 h cumulative amt [21]: 5.5 ± 0.6 nmol | Flux [21]: 0.4 ± 0.1 nmol/cm^2/h | Lag time [21]: 7.2 ± 0.6 h | 24 h cumulative amt [22]: 5.5 ± 0.6 nmol | Flux [22]: 0.4±0.1 nmol/cm^2/h | Lag time [22]: 7.2 ± 0.6 h | Flux enhancement (Table 13, gel formulation, total buprenorphine flux relative to buprenorphine): 1.2 | 24 h skin conc [1, 18]: 2.4 ± 0.9 µmol/g | 24 h skin conc [1, 19]: 20.4 ± 5.8 µmol/g | 24 h skin conc [1, 20]: 22.7 ± 6.8 µmol/g | 24 h skin conc [1, 21]: 0.2 ± 0.0 µmol/g | 24 h skin conc ([1]; Table 13, gel formulation, analyte intact prodrug): 3.3 ± 0.8 µmol/g | 24 h skin conc [1, 22]: 3.5 ± 0.9 µmol/g
